This note sets out measurements from US5187163A, “Anti-viral compounds, dosage forms and methods” (Baker Norton Pharmaceuticals, Inc., priority 1992, dated 1993).

Format in all cases: cell-based
Data set [1] deals with HIV (TM). The data set can be described thus: HIV infectivity assay in MT-2 cells (HIV antigen expression by immunofluorescence, 14 days). The conditions noted are these: for EC50: read-out: ED50 (drug concentration achieving 50% inhibition of HIV expression assessed by immunofluorescence); for CTI, cytotherapeutic index (ID50/ED50): ID50/ED50, day 14, MT-2 cells; for anti-HIV activity profile according to ED50 / cytotherapeutic index, ranking: in words. Here is the method: An isolate of HIV (TM) was obtained from the culture supernatant of normal peripheral blood mononuclear cells infected with virus isolated from a patient with AIDS. Supernatant from H9 cells infected with HIV (TM) was aliquoted at peak reverse transcriptase activity and kept frozen at -85° C. until use.
(§1) Target MT-2 cells (an HTLV-I immortalized CD4+lymphoblastoid cell line) were propagated in growth medium (D-MEM supplemented with 15% heat-inactivated fetal bovine serum, 2mM glutamine, and 1% penicillin-streptomycin).
(§2) Target MT-2 cells were exposed to DEAE-dextran (25 ug/ml, Sigma) for 20 minutes, washed and infected with HIV (TM) (MOI=0.001) at 37° C. for 1 hour. MT-2 cells (3×10^5 per ml) were placed in growth medium and transferred to a 24-well plastic tray followed by the addition of drug. The cells were carried at 37° C. in humidified air containing 5% CO2 for 14 days. Every 3-4 days, the medium was changed and fresh drug added. At each change of medium, cells and supernatants were assayed for measures of HIV expression. Uninfected and infected MT-2 cells without exposure to drug were used as controls. All cultures were performed in triplicate on two sets of experiments.
*The results are expressed as the arithmetic mean of triplicate cultures
(§3) from two sets of experiments. Linear regression analysis was used to
ED50, drug concentration achieving 50% inhibition of HIV expression
assessed by immunofluorescence on day 14.

Data set [2] can be described thus: Cytotoxicity (cell viability, trypan blue exclusion) in uninfected MT-2 cells. The conditions noted are these: human; day 14, uninfected MT-2 cells; mean of triplicate cultures from two sets of experiments; linear regression; read-out: ID50 (drug concentration required to reduce the number of uninfected MT2 cells by 50%). The protocol:
as §1
(§4) MT-2 cells (2×10^5 cells per ml) were exposed to multiple drug concentrations (performed in triplicate). The medium was changed every 3-4 days, followed by the addition of fresh drug. Cell viability was determined by the trypan blue exclusion method and compared to controls without drug.
(§5) The comparative HIV inhibitory effects of nucleosides and the novel nucleoside dimers are shown on Table 1. The 50% inhibitory dose (ID50) and 50% effective dose (ED50) of each compound were calculated using linear regression analysis from the results of a 14 day assay that monitored cell viability and the expression of HIV antigen by cellular fluorescence.
(§6) The growth inhibitory effects of the compounds on MT-2 cells that were not exposed to the virus were compared. According to their ID50, the compounds could be classified into three major groups. […] When the cytotoxic effects of the compounds were tested against the human cell lines H9 and U937, similar toxicity profiles were seen.
as §3
(§7) determine the ID50 and ED50. ID50, drug concentration
(§8) required to reduce the number of uninfected MT2 cells by 50% on day 14.

The subject of the next data set is MT-2 cells. The data set is described as above. The following applies: uninfected MT-2 cells, in words. Here is the method:
as §1, §4, §5, §6, §3, §7, §8

Data set [3] has as its system HIV (TM). The data set can be described thus: 4 day HIV-induced syncytium inhibition assay in MT-2 cells. The conditions noted are these: for EC100: Human immunodeficiency virus 1, MT2, 96 h, read-out: concentration for complete/full protection of MT-2 cells from the formation of syncytia; for protective effect against the development of HIV-induced syncytia: among the dimers, 4 day assay, in words. The protocol:
An isolate of HIV (TM) was obtained from the culture supernatant of normal peripheral blood mononuclear cells infected with virus isolated from a patient with AIDS. Supernatant from H9 cells infected with HIV (TM) was aliquoted at peak reverse transcriptase activity and kept frozen at -85° C. until use. HIV (TM) infectivity assays using sequential fivefold dilutions (performed in quadruplicate) determined the infectious virus titer (Reed-Muench method) to be 10^4.5 TC ID50 per ml.
as §1, §2
MT-2 cells were chosen because of their sensitivity to HIV infection with the formation of giant syncytia that are quantifiable. The cytopathic effect of HIV could be monitored as a function of the input virus inoculum. When MT-2 cells were monitored in a 14 day assay, a MOI of 0.001 gave rise to the formation of syncytia after 4 days (>400 per well) and peak reverse transcriptase levels by day 8.
To investigate the inhibitory effects of the drugs on HIV-induced syncytia formation, the nucleoside dimers were compared to their monomers and their combinations at multiple concentrations in a 4 day syncytium inhibition assay.

Data set [4] deals with Reverse transcriptase (RT). The data set can be described thus: Inhibition of reverse transcriptase activity in culture supernatant of HIV-infected H9 cells. The following applies: for Reverse Transcriptase activity in culture supernatant: H9 cells, MOI = 1.0. The protocol:
*Target cells = H9 cells. MOI = 1.0. Media changes with the addition of
fresh drug were performed at 3-4 day intervals. Results are expressed as
CPMReverse Transcriptase activity per ml in culture supernatant. CPM
>5,000 signifies abnormal elevations in Reverse Transcriptase activity.
The results represent the mean of duplicate studies in one experiment.

Setting [5] is: Human immunodeficiency virus 1, MT2, 336 h.
Where [6] appears, read: 1 Ug/ml, day 7, control (no drug) 11,000.
The mark [7] stands for this setting: 1 Ug/ml, day 11, control (no drug) 38,000.
Setting [8] is: 1 Ug/ml, day 14, control (no drug) 34,000.
The mark [9] stands for this setting: 5 Ug/ml, day 7, control (no drug) 11,000.
Where [10] appears, read: 5 Ug/ml, day 11, control (no drug) 38,000.
Setting [11] is: 5 Ug/ml, day 14, control (no drug) 34,000.

Each structure is given as a SMILES string. Structures can show the parent of a compound that is named as a salt. Where two headings read alike, the source gives them in different places.

In the case of `Cc1cn([C@H]2C[C@H](N=[N+]=[N-])[C@@H](COP(=O)(OCCC#N)OC[C@@H]3CC[C@H](n4cnc5c(N)ncnc54)O3)O2)c(=O)[nH]c1=O` (stereo partly shown) [AZT-P(CyE)-ddA], in the data set with HIV (TM) [1] (setting [5]), the EC50 was 0.7 µM. For the same compound, the “CTI, cytotherapeutic index (ID50/ED50)” value in the data set with HIV (TM) [1] (20160 min) came out at 300. In the data set on HIV (TM) [1], the “anti-HIV activity profile according to ED50” value is recorded as “most potent”. The “cytotherapeutic index, ranking” value with HIV (TM) [1] is “highest”. Further, in data set [2], the CC50 at 336 h is 210 µM. Also, the “toxicity group according to ID50” value with MT-2 cells was “moderate toxicity”. The EC100 in the data set on HIV (TM) [3] was found to be 0.5 µM. Also, the “protective effect against the development of HIV-induced syncytia” value in the data set on HIV (TM) [3] is listed as “strongest protective effect”. For the same compound, the “Reverse Transcriptase activity in culture supernatant” value (from here on “Reverse Transcriptase activity”) in data set [4] (setting [6]) is recorded as 6,000 CPM per ml; in data set [4] (setting [7]), 43,000 CPM per ml; in data set [4] (setting [8]), 36,000 CPM per ml; in data set [4] (setting [9]), 1,000 CPM per ml; in data set [4] (setting [10]) it was 4,500 CPM per ml; in data set [4] (setting [11]) it was 12,000 CPM per ml.

`Cc1cn(C2CC(N=[N+]=[N-])C(COP(=O)(O)OCC3OC(n4cc(C)c(=O)[nH]c4=O)CC3N=[N+]=[N-])O2)c(=O)[nH]c1=O` (stereo not shown) [AZT-P-AZT, reference compound]: the EC50 in the data set on HIV (TM) [1] (setting [5]) stood at 1.5 µM. The “CTI, cytotherapeutic index (ID50/ED50)” value in the data set on HIV (TM) [1] (20160 min) amounted to 40. Further, the “anti-HIV activity profile according to ED50” value in the data set on HIV (TM) [1] is reported as “most potent”. The CC50 at 336 h in data set [2] worked out at 60 µM. Moreover, the “toxicity group according to ID50” value in the data set on MT-2 cells is given as “highest toxicity”.

As for `Cc1cn([C@H]2C[C@H](N=[N+]=[N-])[C@@H](COP(=O)(O)OC[C@@H]3CC[C@H](n4cnc5c(N)ncnc54)O3)O2)c(=O)[nH]c1=O` [AZT-P-ddA, azido-beta-thymidine-2',3'-dideoxyadenosine phosphate ammonium salt], the EC50 in the data set on HIV (TM) [1] (setting [5]) came out at 0.8 µM. For the same compound, the “CTI, cytotherapeutic index (ID50/ED50)” value in the data set with HIV (TM) [1] (20160 min) turned out to be 250. The “anti-HIV activity profile according to ED50” value in the data set with HIV (TM) [1] is recorded as “most potent”. Also, the “cytotherapeutic index, ranking” value with HIV (TM) [1] is on record as “highest”. Moreover, the CC50 at 336 h in data set [2] was found to be 200 µM. The “toxicity group according to ID50” value in the data set on MT-2 cells is “moderate toxicity”. Moreover, in the data set with HIV (TM) [3], the EC100 is 0.5 µM. In addition, the “protective effect against the development of HIV-induced syncytia” value in the data set on HIV (TM) [3] is on record as “strongest protective effect”. For the same compound, the “Reverse Transcriptase activity” value in data set [4] (setting [6]) is 1,500 CPM per ml; in data set [4] (setting [7]), 12,000 CPM per ml; in data set [4] (setting [8]), 26,500 CPM per ml; in data set [4] (setting [9]), 500 CPM per ml; in data set [4] (setting [10]) it was 500 CPM per ml; in data set [4] (setting [11]), 500 CPM per ml. For the same compound, in data set [4] (in words), the “activity in RT assay compared with AZT” value was “comparable to that of AZT”.

Consider `Cc1cn([C@H]2C[C@H](N=[N+]=[N-])[C@@H](COP(=O)(O)OC[C@@H]3CC[C@H](n4cnc5c(=O)[nH]cnc54)O3)O2)c(=O)[nH]c1=O` [AZT-P-ddI, azido-β-thymidine-2',3'-dideoxyinosine phosphate ammonium salt], for which the EC50 in the data set with HIV (TM) [1] (setting [5]) stood at 1 µM. In addition, in the data set on HIV (TM) [1] (20160 min), the “CTI, cytotherapeutic index (ID50/ED50)” value came to 240. The “anti-HIV activity profile according to ED50” value in the data set with HIV (TM) [1] was “most potent”. For the same compound, the “cytotherapeutic index, ranking” value with HIV (TM) [1] was “highest”. Moreover, the CC50 at 336 h in data set [2] amounted to 240 µM. In addition, the “toxicity group according to ID50” value in the data set on MT-2 cells is recorded as “moderate toxicity”. In addition, in data set [4] (1 ug/ml), the “duration of inhibition of the enzyme (RT)” value is given as “at least 11 days”. Moreover, the “Reverse Transcriptase activity” value in data set [4] (setting [6]) is listed as 1,000 CPM per ml; in data set [4] (setting [7]) it was 3,000 CPM per ml; in data set [4] (setting [8]), 10,000 CPM per ml; in data set [4] (setting [9]), 1,000 CPM per ml; in data set [4] (setting [10]) it was 1,500 CPM per ml; in data set [4] (setting [11]) it was 25,000 CPM per ml.

Consider `Nc1ncnc2c1ncn2[C@H]1CC[C@@H](CO)O1` [ddA, 2',3'-dideoxyadenosine, reference compound], for which, in the data set with HIV (TM) [1] (setting [5]), the EC50 was 7 µM. The “CTI, cytotherapeutic index (ID50/ED50)” value in the data set on HIV (TM) [1] (20160 min) is given as 57. The “anti-HIV activity profile according to ED50” value with HIV (TM) [1] is listed as “weaker activities”. In data set [2], the CC50 at 336 h worked out at 400 µM. In the data set with MT-2 cells, the “toxicity group according to ID50” value was “least toxicity”. In addition, the EC100 in the data set on HIV (TM) [3] stood at 10 µM. For the same compound, the “Reverse Transcriptase activity” value in data set [4] (1 uM, day 7, control (no drug) 11,000) is 5,500 CPM per ml; in data set [4] (1 uM, day 11, control (no drug) 38,000), 45,000 CPM per ml; in data set [4] (1 uM, day 14, control (no drug) 34,000), 39,500 CPM per ml; in data set [4] (10 uM, day 7, control (no drug) 11,000), 500 CPM per ml; in data set [4] (10 uM, day 11, control (no drug) 38,000) it was 3,000 CPM per ml; in data set [4] (10 uM, day 14, control (no drug) 34,000), 4,500 CPM per ml.

For the compound `O=c1[nH]cnc2c1ncn2[C@H]1CC[C@@H](CO)O1` [ddI, 2',3'-dideoxyinsine, reference compound], in the data set with HIV (TM) [1] (20160 min), the “CTI, cytotherapeutic index (ID50/ED50)” value turned out to be 60. The EC50 with HIV (TM) [1] (day 14, HIV-infected MT-2 cells, MOI 0.001, mean of triplicate cultures from two sets of experiments, linear regression, 20160 min) worked out at 7.5 µM. Further, in the data set on HIV (TM) [1], the “anti-HIV activity profile according to ED50” value is “weaker activities”. The CC50 at 336 h in data set [2] was determined as 450 µM. Also, in the data set with MT-2 cells, the “toxicity group according to ID50” value is “least toxicity”.
